Experimental data published in patent EP4029501A1, “COMBINATION OF POLYAROMATIC UREA DERIVATIVES AND GLUCOCORTICOID OR HDAC INHIBITOR FOR THE TREATMENT OF DISEASES OR CONDITIONS ASSOCIATED WITH MUSCLE CELLS AND/OR SATELLITE CELLS” (Anagenesis Biotechnologies, priority 2021, dated 2022).

System: muscle progenitors derived from DMD hiPSC
Experiment: Myotube assay: total myotube area per well (alpha-actinin staining)
Format: cell-based, human
Settings: Homo sapiens, Myotube, 72 h, DMD or WT cell source not given; for Emax: efficacy, MA = normalized Myotube Area, 3 days incubation; for EC50: myogenic activity, half-maximal generation of myotubes, 10 points dose-response 1.5 nM to 30 µM, 3 days
Protocol: An in vitro assay for assessing the efficacy of compounds for use in treating, ameliorating, delaying, curing and/or preventing a disease or condition associated with muscle cells and/or satellite cells is described in example 78. Herein, the generation of myotubes and satellite cells after adding a compound to a myotube assay workflow is assessed. Said myotube assay workflow is derived from wild-type or DMD human induced pluripotent stem cells (WT hiPSC or DMD hiPSC). Before the addition of said compound, the assay comprises satellite-like cells, but no significant amount of myotubes.
The efficacy of said compound for use in treating, ameliorating, delaying, curing and/or preventing a disease or condition associated with muscle cells and/or satellite cells is positively correlated with the generation of myotubes (i.e. the increase of the area occupied by myotubes on the assay) and/or satellite cells (i.e. the increase of the number of satellite cells) in the assay after adding said compound. The generation of myotubes by the addition of said compound is expressed as the EC50 value, the concentration of said compound that corresponds with the half-maximal generation of myotubes, and the MA (normalized myotube area) value, the normalized area occupied by generated myotubes on the assay. […] Since muscle cells are formed from myotubes during myogenesis, the generation of myotubes in the assay is a good indicator of the ability of said compound to induce the formation of functional muscle cells in vivo. The number of satellite cells is measured as the percentage of Pax7 positive cells, relative to the total number of cells in the assay, as shown in Figure 3. The percentage of Pax7 is a good indicator of the ability of said compound to induce the formation of satellite cells which are able to play a role in muscle repair and regeneration in vivo.
DMD human induced pluripotent stem cells (hereafter "DMD hiPSC"), generated from the NCRM-1 hiPSC WT cell line by gene editing, or WT human induced pluripotent stem cells (hereafter "WT hiPSC"), being NCRM-1 hiPSC wt cell line, have been differentiated according to Chal et al. 2015, 2016, to produce muscle progenitors (hereafter "hMP"). The hMP population contains satellite-like cells (i.e Pax7-positive cells) and satellite cells' progenies (i.e. Myogenin-positive cells).
Figure 1 provides an example of a Myotube assay workflow. At day 0, hMP are thawed and 3.1 million cells are plated into a T75-flask coated with hESC-qualified Matrigel™ (Corning) in SkGM proliferating medium (PromoCells), supplemented with 5 µM Y-27632 (Tocris Bioscience). On day 2, SkGM proliferating medium is refreshed. On day 4, hMP are harvested and transferred into a 384-well plate coated with collagen type I at a density of 3500 cells/well in a DMEM-based medium, containing 5% of knockout serum replacement (Gibco), 1% PenStrep (Gibco), 1% MEM NEAA (Gibco) and 0.1 mM 2-mercaptoethanol (Gibco) (hereafter "K5 medium") and 5 µM Y-27632. Compounds to be tested are then added in the medium and incubated for 3 days at 37°C. On day 7, cells are fixed and immunostained. For example, myotubes (alpha-actinin staining) and satellite-like (Pax7 staining) cells can be analyzed for total myotube area per well or Pax7-positive cell quantification.
DMD hMP were put in the Myotube assay according to the workflow described in Example 2.1. In particular, compound (i) was added at concentrations ranging from 1.5 nM to 30 µM, starting from day 4. hMP were cultivated for three more days in presence of compound (i), then fixed and analyzed for quantification of total myotube area per well. Duplicates of each condition were averaged.

| SMILES | Emax [%] | EC50 [nM] |
| --- | --- | --- |
| CSc1cc(Oc2ccnc(NS(C)(=O)=O)c2)ccc1NC(=O)Nc1cc(C(C)(C)C)no1 [(dl), N-(4-(4-(3-(3-(tert-butyl)isoxazol-5-yl)ureido)-3-(methylthio)phenoxy)pyridin-2-yl)methanesulfonamide] | ≥ 75 | 1000 to 5000 |
| CSc1cc(Oc2ccnc3[nH]c(=O)cnc23)ccc1NC(=O)Nc1nc(C(C)(C)C)cs1 [(ca), 1-(4-(tert-butyl)thiazol-2-yl)-3-(2-(methylthio)-4-((3-oxo-3,4-dihydropyrido[2,3-b]pyrazin-8-yl)oxy)phenyl)urea] | ≥ 75 | ≥ 5000 |
| CC(C)(C)c1cc(NC(=O)Nc2ccc(Oc3ccnc4[nH]c(=O)cnc34)cc2C(F)(F)F)n(-c2ccccc2)n1 [(v), 1-(3-(tert-butyl)-1-phenyl-1H-pyrazol-5-yl)-3-(4-((3-oxo-3,4-dihydropyrido[2,3-b]pyrazin-8-yl)oxy)-2-(trifluoromethyl)phenyl)urea] | ≥ 75 | < 500 |
| CC(C)(C)c1cc(NC(=O)Nc2cccc(Oc3ccnc4[nH]c(=O)cnc34)c2F)n(-c2ccccc2)n1 [(cw), 1-(3-(tert-butyl)-1-phenyl-1 H-pyrazol-5-yl)-3-(2-fluoro-3-((3-oxo-3,4-dihydropyrido[2,3-b]pyrazin-8-yl)oxy)phenyl)urea] | ≥ 75 | ≥ 5000 |
| CSc1cc(Oc2ccnc3[nH]c(=O)cnc23)ccc1NC(=O)Nc1cc(C(C)(C)C)nn1-c1ccc(F)c(Cl)c1 [(cm), 1-(3-(tert-butyl)-1-(3-chloro-4-fluorophenyl)-1H-pyrazol-5-yl)-3-(2-(methylthio)-4-((3-oxo-3,4-dihydropyrido[2,3-b]pyrazin-8-yl)oxy)phenyl)urea] | ≥ 75 | 500 to 1000 |
| O=C(Nc1ccc(Oc2ccnc3[nH]c(=O)cnc23)cc1F)Nc1c2c(nn1-c1ccccc1)CCC2 [(x), 1-(2-fluoro-4-((3-oxo-3,4-dihydropyrido[2,3-b]pyrazin-8-yl)oxy)phenyl)-3-(2-phenyl-2,4,5,6-tetrahydrocyclopenta[c]pyrazol-3-yl)urea] | 25 to 50 | ≥ 5000 |
| CC(C)(C)c1cc(NC(=O)Nc2ccc(Oc3ccnc4c3CCC(=O)N4)c3ccccc23)on1 [(dg), 1-(3-(tert-butyl)isoxazol-5-yl)-3-(4-((7-oxo-5,6,7,8-tetrahydro-1,8-naphthyridin-4-yl)oxy)naphthalen-1-yl)urea] | ≥ 75 | < 500 |
| CSc1cc(Oc2ccnc3c2CCC(=O)N3)ccc1NC(=O)Nc1cc(C(C)(C)C)no1 [(cz), 1-(3-(tert-butyl)isoxazol-5-yl)-3-(2-(methylthio)-4-((7-oxo-5,6,7,8-tetrahydro-1,8-naphthyridin-4-yl)oxy)phenyl)urea] | ≥ 75 | 500 to 1000 |
| O=C(Nc1ccc(Oc2ccnc3[nH]c(=O)cnc23)cc1F)Nc1c(-c2ccccc2)nn2c1CCC2 [(y), 1-(2-fluoro-4-((3-oxo-3,4-dihydropyrido[2,3-b]pyrazin-8-yl)oxy)phenyl)-3-(2-phenyl-5,6-dihydro-4H-pyrrolo[1,2-b]pyrazol-3-yl)urea] | 25 to 50 | ≥ 5000 |
| CNC(=O)c1cc(Oc2ccc(NC(=O)Nc3cc(C(C)(C)C)nn3-c3ccccc3)c(SC)c2)ccn1 [(br), 4-(4-(3-(3-(tert-butyl)-1-phenyl-1H-pyrazol-5-yl)ureido)-3-(methylthio)phenoxy)-N-methylpicolinamide] | ≥ 75 | ≥ 5000 |
| CC(C)(C)c1cnc(NC(=O)Nc2ccc(Oc3ccnc4[nH]c(=O)cnc34)c3ccccc23)s1 [(ba), 1-(5-(tert-butyl)thiazol-2-yl)-3-(4-((3-oxo-3,4-dihydropyrido[2,3-b]pyrazin-8-yl)oxy)naphthalen-1-yl)urea] | ≥ 75 | < 500 |
| CSc1cc(Oc2ccncc2)ccc1NC(=O)Nc1cc(C(C)(C)C)nn1-c1ccccc1 [(dk), 1-(3-(tert-butyl)-1-phenyl-1 H-pyrazol-5-yl)-3-(2-(methylthio)-4-(pyridin-4-yloxy)phenyl)urea] | 25 to 50 | ≥ 5000 |
| CC(C)(C)c1cc(NC(=O)Nc2ccc(Oc3ccnc4[nH]c(=O)cnc34)c3ccccc23)n(-c2ccc3ncccc3c2)n1 [(bb), 1-(3-(tert-butyl)-1-(quinolin-6-yl)-1 H-pyrazol-5-yl)-3-(4-((3-oxo-3,4-dihydropyrido[2,3-b]pyrazin-8-yl)oxy)naphthalen-1-yl)urea] | ≥ 75 | < 500 |
| CSc1cc(Oc2ccnc3c2CCCN3)ccc1NC(=O)Nc1cc(C(C)(C)C)nn1-c1ccccc1 [(be), 1-(3-(tert-butyl)-1-phenyl-1H-pyrazol-5-yl)-3-(2-(methylthio)-4-((5,6,7,8-tetrahydro-1,8-naphthyridin-4-yl)oxy)phenyl)urea] | ≥ 75 | 1000 to 5000 |
| CSc1cc(Oc2cccc3[nH]ncc23)ccc1NC(=O)Nc1cc(C(C)(C)C)nn1-c1ccccc1 [(cn), 1-(4-((1H-indazol-4-yl)oxy)-2-(methylthio)phenyl)-3-(3-(tert-butyl)-1-phenyl-1H-pyrazol-5-yl)urea] | 50 to 75 | 1000 to 5000 |
| CSc1cc(Oc2ccnc3c2OCC(=O)N3)ccc1NC(=O)Nc1cc(C(C)(C)C)nn1-c1ccccc1 [(ct), 1-(3-(tert-butyl)-1-phenyl-1H-pyrazol-5-yl)-3-(2-(methylthio)-4-((3-oxo-3,4-dihydro-2H-pyrido[3,2-b][1,4]oxazin-8-yl)oxy)phenyl)urea] | ≥ 75 | < 500 |
| CC(C)(C)c1cc(NC(=O)Nc2ccc(Oc3ccnc4[nH]c(=O)cnc34)nc2)n(-c2ccccc2)n1 [(t), 1-(3-(tert-butyl)-1-phenyl-1 H-pyrazol-5-yl)-3-(6-((3-oxo-3,4-dihydropyrido[2,3-b]pyrazin-8-yl)oxy)pyridin-3-yl)urea] | 25 to 50 | < 500 |
| O=C(Nc1ccc(Oc2ccnc3[nH]c(=O)cnc23)cc1F)Nc1cc(C2(C(F)(F)F)CC2)nn1-c1ccccc1 [(d), 1-(2-fluoro-4-((3-oxo-3,4-dihydropyrido[2,3-b]pyrazin-8-yl)oxy)phenyl)-3-(1-phenyl-3-(1-(trifluoromethyl)cyclopropyl)-1 H-pyrazol-5-yl)urea] | 50 to 75 | 1000 to 5000 |
| CSc1cc(Oc2ccnc3[nH]c(=O)[nH]c23)ccc1NC(=O)Nc1cc(C(C)(C)C)nn1-c1ccccc1 [(dm), 1-(3-(tert-butyl)-1-phenyl-1H-pyrazol-5-yl)-3-(2-(methylthio)-4-((2-oxo-2,3-dihydro-1H-imidazo[4,5-b]pyridin-7-yl)oxy)phenyl)urea] | ≥ 75 | 1000 to 5000 |
| CSc1cc(NC(=O)Nc2cc(C(C)(C)C)nn2-c2ccccc2)ccc1Oc1ccnc2[nH]c(=O)cnc12 [(dn), 1-(3-(tert-butyl)-1-phenyl-1H-pyrazol-5-yl)-3-(3-(methylthio)-4-((3-oxo-3,4-dihydropyrido[2,3-b]pyrazin-8-yl)oxy)phenyl)urea] | ≥ 75 | 500 to 1000 |
| CSc1cc(Oc2ccnc3c2CCC(=O)N3)ccc1NC(=O)Nc1cc(C(C)(C)C)nn1-c1ccc(C)cc1 [(by), 1-(3-(tert-butyl)-1-(p-tolyl)-1H-pyrazol-5-yl)-3-(2-(methylthio)-4-((7-oxo-5,6,7,8-tetrahydro-1,8-naphthyridin-4-yl)oxy)phenyl)urea] | ≥ 75 | < 500 |
| CSc1cc(Oc2ccnc3[nH]c(=O)cnc23)ccc1NC(=O)Nc1cc(C(C)(C)C)nn1-c1ccc(C)nc1 [(bd), 1-(3-(tert-butyl)-1-(6-methylpyridin-3-yl)-1 H-pyrazol-5-yl)-3-(2-(methylthio)-4-((3-oxo-3,4-dihydropyrido[2,3-b]pyrazin-8-yl)oxy)phenyl)urea] | ≥ 75 | < 500 |
